In BigSolDB 2.1:

CCc1nnc(NC(=O)CCCCCNC(C)=O)s1
solubility (mole fraction)
Conditions	288.15 K	293.15 K	298.15 K	303.15 K	308.15 K	313.15 K	318.15 K
in ethanol	0.000578	0.000733	0.000965	0.00118	0.00162	0.0021	0.0026
in n-hexane	1.54e-05	1.81e-05	2.15e-05	2.47e-05	3.05e-05	3.55e-05	4.13e-05
in n-octanol	0.000685	0.000814	0.000961	0.00113	0.00142	0.00167	0.00194
